According to ChEMBL document CHEMBL1201862, “PubChem BioAssay data set” (2004):
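A five-concentration, 48-hour dose response in 96-well plates underlies each endpoint, interpolated linearly between surrounding concentrations. GI50 = concentration required for 50% inhibition of growth.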 The source made the active and inactive calls. No stated cut-off is given here; in the data, active = GI50 up to about 1.1 µM and inactive = higher.

Experiments:
Assay in all cases: growth of human tumour cells (NCI), 48 h
[1] = tested on: SW-620
[2] = tested on: MOLT-4
[3] = tested on: NCI-H522
[4] = tested on: A498
[5] = tested on: SK-MEL-2
[6] = tested on: U-251
[7] = tested on: HCC 2998
[8] = tested on: NCI-H23
[9] = tested on: SF-295
[10] = tested on: SF-539
[11] = tested on: UO-31
[12] = tested on: MDA-N
[13] = tested on: SNB-19
[14] = tested on: K562
[15] = tested on: PC-3
[16] = tested on: A549
[17] = tested on: TK-10
[18] = tested on: BT-549
[19] = tested on: SR
[20] = tested on: Malme-3M

Measured: GI50

O=C(O)CCc1nc2c(n1Cc1ccccc1)C(=O)c1ccccc1C2=O
inactive: [1] 31.8 µM | [2] 68.9 µM | [3] 24.3 µM | [4] > 100 µM | [5] 26 µM | [6] 56 µM | [7] > 100 µM | [8] 30.3 µM | [9] 59.6 µM | [10] 28.1 µM | [11] 30.8 µM | [12] 21.5 µM | [13] > 100 µM | [14] 57.3 µM | [15] 72.9 µM | [16] 50.4 µM | [17] 34.1 µM | [18] > 100 µM | [19] 51.4 µM

CC1=C(C(=O)NCC(C)O)CC(C(=O)NCC(C)O)=C(C)N1 (stereo not drawn)
inactive: [1] > 100 µM | [2] > 100 µM | [3] > 100 µM | [5] > 100 µM | [6] > 100 µM | [7] > 100 µM | [8] > 100 µM | [9] > 100 µM | [10] > 100 µM | [11] > 100 µM | [12] > 100 µM | [13] > 100 µM | [14] > 100 µM | [15] > 100 µM | [16] > 100 µM | [17] > 100 µM | [18] > 100 µM | [19] > 100 µM

CC1(C)SC2C(NC(=O)Cc3ccccc3)C(=O)N2C1C(=O)O (stereo not drawn)
inactive: [1] > 100 µM | [2] > 100 µM | [3] > 100 µM | [4] > 100 µM | [5] > 100 µM | [6] > 100 µM | [8] > 100 µM | [9] > 100 µM | [10] > 100 µM | [11] > 100 µM | [12] > 100 µM | [20] > 100 µM | [13] > 100 µM | [14] > 100 µM | [15] > 100 µM | [16] > 100 µM | [17] > 100 µM | [18] > 100 µM | [19] > 100 µM

O=C(/C=C(\Nc1ccccc1O)c1ccc(Br)cc1)C(Cl)(Cl)Cl
inactive: [1] 3.06 µM | [2] 13.9 µM | [3] 14.9 µM | [5] 8.04 µM | [6] 3.74 µM | [7] 2.1 µM | [8] 12.6 µM | [9] 6.12 µM | [10] 12.7 µM | [11] 2.68 µM | [12] 4.69 µM | [20] 15.2 µM | [13] 6.87 µM | [14] 14.2 µM | [15] 2.47 µM | [16] 2.75 µM | [17] 6.95 µM | [18] 15 µM | [19] 13.7 µM

O=C(O)C1SCCS1
inactive: [1] > 100 µM | [2] > 100 µM | [4] > 100 µM | [6] > 100 µM | [7] > 100 µM | [8] > 100 µM | [9] > 100 µM | [11] > 100 µM | [12] > 100 µM | [20] > 100 µM | [13] > 100 µM | [14] > 100 µM | [15] > 100 µM | [16] > 100 µM | [17] > 100 µM | [18] > 100 µM | [19] > 100 µM

COc1cccc(C2ON=C(c3ccccc3)N2C23CC4CC(CC(C4)C2)C3)c1 (stereo not drawn)
inactive: [1] > 10 µM | [2] 5.5 µM | [3] > 10 µM | [4] > 10 µM | [5] > 10 µM | [6] > 10 µM | [7] > 10 µM | [8] > 10 µM | [9] > 10 µM | [10] > 10 µM | [12] > 10 µM | [20] > 10 µM | [13] > 10 µM | [14] 8.41 µM | [15] 9.35 µM | [16] > 10 µM | [17] > 10 µM | [18] > 10 µM | [19] 2.09 µM

CCC12CC(c3ccccc3)C(C(=O)N1)C(=O)N2 (stereo not drawn)
inactive: [1] > 100 µM | [2] > 100 µM | [3] > 100 µM | [4] > 100 µM | [5] > 100 µM | [6] > 100 µM | [8] > 100 µM | [9] > 100 µM | [10] > 100 µM | [11] > 100 µM | [12] > 100 µM | [20] > 100 µM | [13] > 100 µM | [14] > 100 µM | [15] > 100 µM | [16] > 100 µM | [18] > 100 µM | [19] > 100 µM

Cc1ccccc1/N=C/N(C)C
inactive: [2] 29.9 µM | [3] 21.2 µM | [4] 91.6 µM | [5] 15 µM | [6] 39.4 µM | [8] 19.2 µM | [9] 39.5 µM | [10] 61.8 µM | [11] 74.6 µM | [12] 37.5 µM | [20] 43.9 µM | [13] 56.8 µM | [14] 14.1 µM | [15] 26.7 µM | [16] 39.6 µM | [17] 54.6 µM | [18] 85.7 µM | [19] 11.4 µM

COc1ccc(/C=C/C2=NN(c3cccc(S(=O)(=O)O)c3)C3(C2)SCC(=O)N3c2nc3ccccc3s2)cc1 (stereo not drawn)
inactive: [1] > 100 µM | [2] 17.5 µM | [3] 35.2 µM | [4] 57 µM | [5] 95.5 µM | [6] 46.2 µM | [7] > 100 µM | [8] 40.1 µM | [10] 33.2 µM | [11] 51.1 µM | [12] > 100 µM | [20] > 100 µM | [13] 97.1 µM | [14] 31.3 µM | [15] 68.7 µM | [16] 90.4 µM | [17] 86.3 µM | [18] 56.1 µM | [19] 19.5 µM

O=C1NI(C#Cc2ccccc2)c2ccccc21
inactive: [1] > 100 µM | [2] 65.3 µM | [4] > 100 µM | [5] > 100 µM | [6] 60.3 µM | [8] > 100 µM | [9] > 100 µM | [10] > 100 µM | [11] > 100 µM | [12] > 100 µM | [20] > 100 µM | [13] > 100 µM | [14] > 100 µM | [15] 19 µM | [16] 59 µM | [17] > 100 µM | [18] > 100 µM | [19] > 100 µM

O=[N+]([O-])c1ccc(Cl)cc1N/N=C/c1cccs1
inactive: [1] > 100 µM | [2] > 100 µM | [3] > 100 µM | [6] > 100 µM | [7] > 100 µM | [8] > 100 µM | [9] > 100 µM | [10] > 100 µM | [11] > 100 µM | [12] > 100 µM | [13] > 100 µM | [14] > 100 µM | [15] > 100 µM | [16] > 100 µM | [17] > 100 µM | [18] > 100 µM | [19] > 100 µM

CCOC1Oc2ccccc2-c2nc(SC)ncc21 (stereo not drawn)
inactive: [1] > 100 µM | [2] 50.8 µM | [3] 71.3 µM | [4] 28.9 µM | [5] > 100 µM | [6] > 100 µM | [8] > 100 µM | [9] > 100 µM | [10] > 100 µM | [11] 51.3 µM | [12] 64.1 µM | [13] > 100 µM | [15] > 100 µM | [16] > 100 µM | [17] 68.4 µM | [18] 78 µM | [19] 87.1 µM

Cc1ccc(NC(=O)c2ccccc2C(=O)O)cc1C
inactive: [1] > 100 µM | [2] > 100 µM | [3] > 100 µM | [4] > 100 µM | [5] > 100 µM | [6] > 100 µM | [8] > 100 µM | [9] > 100 µM | [10] > 100 µM | [12] > 100 µM | [20] > 100 µM | [13] > 100 µM | [14] > 100 µM | [15] > 100 µM | [16] > 100 µM | [17] > 100 µM | [18] > 100 µM | [19] > 100 µM

N=C(N)NS(=O)(=O)c1ccc(NC(=O)c2cccc3c(NNc4ccc(S(=O)(=O)N=C(N)N)cc4)c4ccccc4nc23)cc1
inactive: [1] 48.9 µM | [2] 30.8 µM | [3] 25.6 µM | [5] 16.9 µM | [6] 28.4 µM | [7] 90.6 µM | [8] 52.4 µM | [9] > 100 µM | [10] > 100 µM | [11] > 100 µM | [12] 91.4 µM | [20] 38.2 µM | [13] 76.7 µM | [14] 28.1 µM | [15] 61 µM | [16] > 100 µM | [17] > 100 µM | [18] 33.3 µM | [19] 32.6 µM

COC(=O)C1OC(SCCN)C(O)C(O)C1O (stereo not drawn)
inactive: [1] > 100 µM | [2] > 100 µM | [3] > 100 µM | [4] > 100 µM | [5] > 100 µM | [6] > 100 µM | [8] > 100 µM | [9] > 100 µM | [10] > 100 µM | [12] > 100 µM | [20] > 100 µM | [13] > 100 µM | [14] > 100 µM | [15] > 100 µM | [16] > 100 µM | [17] > 100 µM | [18] > 100 µM | [19] > 100 µM
